Measured values as given in the supplement of paper PMC10307832.

What was measured:
Assay in all cases: relative viability (nuclei count vs DMSO), 5 days (fraction); higher = more cells survive
Cediranib + Tozasertib = compound: COc1cc2c(Oc3ccc4[nH]c(C)cc4c3F)ncnc2cc1OCCCN1CCCC1 [Cediranib] + Cc1cc(Nc2cc(N3CCN(C)CC3)nc(Sc3ccc(NC(=O)C4CC4)cc3)n2)n[nH]1 [Tozasertib] (partner 0.1 µM)
How it was run: (§1)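 Lung cancer cell lines in 1536-well plates got either a single drug or a fixed anchor-drug dose together with five library-drug doses (not always all listed) in √10 steps, by pin tool, on the day after seeding. Nuclei were counted after 5 days, and relative viability is the treated-to-vehicle ratio of nuclei counts. Values are medians of duplicate plates.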

Cediranib + Navitoclax = compound: COc1cc2c(Oc3ccc4[nH]c(C)cc4c3F)ncnc2cc1OCCCN1CCCC1 [Cediranib] + CC1(C)CCC(c2ccc(Cl)cc2)=C(CN2CCN(c3ccc(C(=O)NS(=O)(=O)c4ccc(N[C@H](CCN5CCOCC5)CSc5ccccc5)c(S(=O)(=O)C(F)(F)F)c4)cc3)CC2)C1 [Navitoclax] (partner 0.5 µM)
How it was run: as §1

Decitabine + Vorinostat = compound: Nc1ncn([C@H]2C[C@H](O)[C@@H](CO)O2)c(=O)n1 [Decitabine] + O=C(CCCCCCC(=O)Nc1ccccc1)NO [Vorinostat] (partner 1 µM)
How it was run: as §1

[1] = compound: O=C(C[C@H]1NCCC[C@@H]1O)Cn1cnc2cc(Br)c(Cl)cc2c1=O (racemic) [Halofuginone] + CS(=O)(=O)N1CCN(Cc2cc3nc(-c4cccc5[nH]ncc45)nc(N4CCOCC4)c3s2)CC1 [Pictilisib] (partner 1 µM)
How it was run: as §1

Cell Line	relative viability (Cediranib + Tozasertib; first compound 0.04 µM)	relative viability (Cediranib + Tozasertib; first compound 0.1265 µM)	relative viability (Cediranib + Tozasertib; first compound 0.4 µM)	relative viability (Cediranib + Tozasertib; first compound 1.265 µM)	relative viability (Cediranib + Tozasertib; first compound 4 µM)	relative viability (Cediranib + Navitoclax; first compound 0.04 µM)	relative viability (Cediranib + Navitoclax; first compound 0.4 µM)	relative viability (Cediranib + Navitoclax; first compound 1.265 µM)	relative viability (Cediranib + Navitoclax; first compound 4 µM)	relative viability (Decitabine + Vorinostat; first compound 0.04 µM)	relative viability (Decitabine + Vorinostat; first compound 0.1265 µM)	relative viability (Decitabine + Vorinostat; first compound 0.4 µM)	relative viability (Decitabine + Vorinostat; first compound 1.265 µM)	relative viability (Decitabine + Vorinostat; first compound 4 µM)	relative viability ([1]; first compound 0.001 µM)	relative viability ([1]; first compound 0.003162 µM)	relative viability ([1]; first compound 0.01 µM)	relative viability ([1]; first compound 0.03162 µM)	relative viability ([1]; first compound 0.1 µM)	relative viability (Cediranib + Navitoclax; first compound 0.1265 µM)
NCI-H1395	0.739	0.773	0.666	0.74	0.791	1.23	1.23	1.13	1.05	0.548	0.634	0.605	0.429	0.524	0.625	0.674	0.86	0.578	0.54	
NCI-H1437	0.434	0.426	0.365	0.412	0.421	1.14	1.06	1.07	1.13	0.522	0.542	0.444	0.373	0.421	0.429	0.536	0.414	0.402	0.24	1.17
NCI-H1650	0.585	0.374	0.36	0.476	0.329	1.19	1.08	1.12	0.751	0.358	0.367	0.318	0.195	0.215	0.28	0.658	0.469	0.495	0.136	1.29
NCI-H1651	0.619	0.696	0.596	0.676	0.815	1.04	0.899	1.02	1.18	0.478	0.456	0.483	0.296	0.407	0.677	0.586	0.548	0.522	0.243	1.01
NCI-H1666	0.651	0.678	0.598	0.595	0.624	0.875	0.989	1.09	1.1	0.943	1.05	0.922	0.894	0.836	0.483	0.357	0.443	0.406	0.323	1
NCI-H1734	0.262	0.246	0.278	0.277	0.245	0.759	0.846	0.807	0.842	0.698	0.685	0.48	0.297	0.306	0.46	0.492	0.403	0.449	0.327	0.83
NCI-H1755	0.54	0.481	0.532	0.595	0.547	1.05	0.974	0.998	1.07	0.637	0.608	0.611	0.403	0.429	0.478	0.468	0.445	0.493	0.287	1
NCI-H1793	0.414	0.419	0.347		0.329	0.59	0.461		0.46	0.462	0.631	0.552	0.382	0.325	0.329	0.216	0.33	0.381	0.228	0.468
NCI-H1915	0.467	0.384	0.428	0.46	0.42	0.787	0.805	0.788	0.811	0.263	0.235	0.206	0.158	0.155	0.917	1.04	0.915	0.861	0.882	0.721
NCI-H1944	0.255	0.264	0.244	0.24	0.266	1.08	0.95	0.981	1.01	0.505	0.486	0.424	0.265	0.299	0.317	0.398	0.347	0.35	0.307	1.11
NCI-H1975	0.822	0.809	0.699	0.822	0.768	1.18	0.956	1.19	1.21	0.508	0.412	0.375	0.281	0.291	0.319	0.298	0.31	0.225	0.106	1.13
NCI-H1993	0.607	0.586	0.596	0.565	0.734	1.05	0.981	0.733	1.09	0.628	0.737	0.614	0.399	0.487	0.788	0.749	0.891	0.807	0.803	0.935
NCI-H2009	0.775	0.763	0.703	0.732	0.795	1.2	1.16	1.14	1.11	0.474	0.446	0.356	0.285	0.335	1.07	0.878	0.758	0.689	0.26	1.14
NCI-H2023	0.389	0.353	0.267	0.433	0.303	0.997	1.01	0.997	0.988	0.305	0.389	0.23	0.142	0.119	0.268	0.232	0.228	0.141	0.0681	1.02
NCI-H2085	0.756	0.877	0.757	0.836	0.784	1.19	1.13	1.09	1.26	0.65	0.657	0.591	0.443	0.431	0.58	0.407	0.448	0.515	0.48	1.04
NCI-H2087	0.279	0.257	0.213	0.226	0.228	1.07	1.01	0.984	1.07	0.268	0.285	0.301	0.304	0.208	0.986	1.01	0.799	1	0.831	0.914
